# Assay results as given in ChEMBL document CHEMBL1201862, “PubChem BioAssay data set” (2004).
#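 Exposure lasted 48 hours, with cells grown in 96-well plates and compounds tested at five concentrations. Abbreviation: GI50, concentration required for 50% inhibition of growth.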 Activity calls are given as the source filed them. No stated cut-off is given here; in the data, active = GI50 up to about 1.1 µM and inactive = higher.
# Assays:
# Test in all cases: NCI-60 cell line screen, 48 h
# [1] = test system: 786-0
# [2] = test system: A498
# [3] = test system: A549
# [4] = test system: ACHN
# [5] = test system: BT-549
# [6] = test system: CAKI-1
# [7] = test system: COLO 205
# [8] = test system: DU-145
# [9] = test system: EKVX
# [10] = test system: HCC 2998
# [11] = test system: HCT-116
# [12] = test system: HCT-15
# [13] = test system: HL-60
# [14] = test system: HOP-62
# [15] = test system: HOP-92
# [16] = test system: HT-29
# [17] = test system: Hs-578T
# [18] = test system: IGROV-1
# [19] = test system: K562
# [20] = test system: KM12
# [21] = test system: LOX IMVI
# [22] = test system: M14
# [23] = test system: MCF7
# [24] = test system: MDA-MB-231
# [25] = test system: MDA-MB-435
# [26] = test system: MDA-N
# [27] = test system: MOLT-4
# [28] = test system: Malme-3M
# [29] = test system: NCI-H226
# [30] = test system: NCI-H23
# [31] = test system: NCI-H460
# [32] = test system: NCI-H522
# [33] = test system: NCI/ADR-RES
# [34] = test system: OVCAR-3
# [35] = test system: OVCAR-4
# [36] = test system: OVCAR-5
# [37] = test system: OVCAR-8
# [38] = test system: PC-3
# [39] = test system: RPMI-8226
# [40] = test system: RXF 393
# [41] = test system: SF-268
# [42] = test system: SF-295
# [43] = test system: SK-MEL-28
# [44] = test system: SK-MEL-2
# [45] = test system: SK-MEL-5
# [46] = test system: SK-OV-3
# [47] = test system: SN12C
# [48] = test system: SNB-19
# [49] = test system: SNB-75
# [50] = test system: SW-620
# [51] = test system: T47D
# [52] = test system: TK-10
# [53] = test system: U-251
# [54] = test system: UACC-257
# [55] = test system: UACC-62
# [56] = test system: UO-31
compound,measurement,setting,value
OCCNc1ncnc2[nH]cnc12,GI50,[1],> 100 µM (inactive)
same,GI50,[2],> 100 µM (inactive)
same,GI50,[3],> 100 µM (inactive)
same,GI50,[4],> 100 µM (inactive)
same,GI50,[5],> 100 µM (inactive)
same,GI50,[6],> 100 µM (inactive)
same,GI50,[7],> 100 µM (inactive)
same,GI50,[8],> 100 µM (inactive)
same,GI50,[9],> 100 µM (inactive)
same,GI50,[10],> 100 µM (inactive)
same,GI50,[11],> 100 µM (inactive)
same,GI50,[12],> 100 µM
same,GI50,[13],> 100 µM (inactive)
same,GI50,[14],> 100 µM (inactive)
same,GI50,[15],> 100 µM (inactive)
same,GI50,[16],> 100 µM (inactive)
same,GI50,[17],> 100 µM (inactive)
same,GI50,[18],> 100 µM (inactive)
same,GI50,[19],> 100 µM (inactive)
same,GI50,[20],> 100 µM (inactive)
same,GI50,[21],> 100 µM (inactive)
same,GI50,[22],> 100 µM (inactive)
same,GI50,[23],> 100 µM (inactive)
same,GI50,[24],> 100 µM (inactive)
same,GI50,[25],> 100 µM (inactive)
same,GI50,[26],> 100 µM (inactive)
same,GI50,[27],> 100 µM (inactive)
same,GI50,[28],> 100 µM (inactive)
same,GI50,[29],> 100 µM (inactive)
same,GI50,[30],> 100 µM (inactive)
same,GI50,[31],> 100 µM (inactive)
same,GI50,[32],> 100 µM (inactive)
same,GI50,[33],> 100 µM (inactive)
same,GI50,[34],> 100 µM (inactive)
same,GI50,[35],> 100 µM (inactive)
same,GI50,[36],> 100 µM (inactive)
same,GI50,[37],> 100 µM (inactive)
same,GI50,[38],> 100 µM (inactive)
same,GI50,[39],> 100 µM (inactive)
same,GI50,[40],> 100 µM (inactive)
same,GI50,[41],> 100 µM (inactive)
same,GI50,[42],> 100 µM (inactive)
same,GI50,[43],> 100 µM (inactive)
same,GI50,[44],> 100 µM (inactive)
same,GI50,[45],> 100 µM (inactive)
same,GI50,[46],> 100 µM (inactive)
same,GI50,[47],> 100 µM (inactive)
same,GI50,[48],> 100 µM (inactive)
same,GI50,[49],0.296 µM (active)
same,GI50,[50],> 100 µM (inactive)
same,GI50,[51],> 100 µM (inactive)
same,GI50,[52],> 100 µM (inactive)
same,GI50,[53],> 100 µM (inactive)
same,GI50,[54],> 100 µM (inactive)
same,GI50,[55],> 100 µM (inactive)
same,GI50,[56],> 100 µM (inactive)
